Experimental data published in US20260286356A1, “NUCLEIC ACID VACCINE FOR ACTIVATING NKG2C+ NATURAL KILLER CELLS” (priority 2023, published 2026).

How the values were obtained:
NKG2A+/NKG2C− NK cells = test: NK cell stimulation assay with peptide-loaded HLA-E expressing target cells, NKG2A+ cells; type: cell-based, human; conditions: NK cell degranulation and IFN-g, TNF and CCL3 production; compared to LIL, LFL and PQS controls
Procedure: (§1) FIG. 4: NK cell stimulation assays. Assessment of effects of peptides on NK cell activity through incubation of NK cells, peptides, and a) K562/HLA-E or b) RMA-S/HLA-E target cells. Peptides were derived from the human or CMV proteomes or are included as positive (LFL, LIL) or negative controls (PQS). Replicates for individual peptides are from different donors, with solid black lines indicating mean values.
(§2) Cell-based activation assays were performed with primary NK cells (FIG. 4). Therein, NK cells were co-incubated with K562 peptide-loaded HLA-E expressing cells, as described previously^14. The K562 human […] cell line is a common tool for the analysis of NK cell cytotoxicity and activation, as said cells facilitate the analysis of both NKG2C-mediated activation and NKG2A-mediated inhibition. The PQS peptide served as a negative control.
(§3) Peptides that bound and stabilized HLA-E in the cell-based stability experiment (FIG. 3) were selected and assessed regarding their effect on NKG2A+/NKG2C− or NKG2A−/NKG2C+ NK cell activity. The effect was quantified by the ability to induce NK cell degranulation and IFN-g, TNF and CCL3 production, compared to […] (“LIL”; SEQ ID NO: 4) and […] (“LFL”; SEQ ID NO: 2) peptides (class I MHC-derived) as positive control, and […] (“PQS”; (SEQ ID NO: 53) as negative control peptide (FIG. 4). NKG2A/NKG2C NK cells served as an internal control. NKG2A/NKG2C NK cells have been shown previously to not be affected by peptide-HLA-E complexes.

NKG2A−/NKG2C+ NK cells = test: NK cell stimulation assay with peptide-loaded HLA-E expressing target cells, NKG2C+ cells; type: cell-based, human; conditions: NK cell degranulation and IFN-g, TNF and CCL3 production; compared to LIL, LFL and PQS controls
Procedure: as §1, §2, §3

HLA-E = HLA-E (Homo sapiens, UniProt P13747); test: HLA-E surface stabilization assay with RMA-S/HLA-E cells; type: cell-based; conditions: RMA-S/HLA-E cells incubated with 30 μM peptide, anti-HLA-E antibody
Sequence of HLA-E (P13747 22-358): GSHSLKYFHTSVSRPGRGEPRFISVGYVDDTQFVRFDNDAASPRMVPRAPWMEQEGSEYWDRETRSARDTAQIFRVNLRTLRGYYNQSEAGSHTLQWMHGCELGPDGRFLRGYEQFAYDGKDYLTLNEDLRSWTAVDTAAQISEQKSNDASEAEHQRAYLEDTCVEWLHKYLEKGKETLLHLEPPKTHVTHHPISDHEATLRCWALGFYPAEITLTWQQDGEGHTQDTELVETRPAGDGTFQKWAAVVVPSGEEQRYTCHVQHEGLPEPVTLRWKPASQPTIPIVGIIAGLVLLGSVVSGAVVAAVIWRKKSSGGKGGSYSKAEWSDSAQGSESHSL
Sequence of HLA-E (P61769 21-119, further chain): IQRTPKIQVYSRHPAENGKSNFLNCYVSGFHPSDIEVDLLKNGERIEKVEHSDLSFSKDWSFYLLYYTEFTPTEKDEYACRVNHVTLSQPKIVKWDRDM
Procedure: Assessment of peptide-HLA-E binding via HLA-E surface stabilization assay with RMA-S/HLA-E cells incubated with 30 μM peptide. HLA-E expression is detected with an anti-HLA-E antibody.
To do so, various sequence variants were assessed for their ability to stabilize surface-expressed HLA-E on RMA-S/HLA-E cells, a TAP-deficient mouse tumor cell line engineered to express HLA-E and human β2M (FIG. 3).

Sequence	inhibitory effect on NKG2A+ cells (NKG2A+/NKG2C− NK cells)	activating effect on NKG2C+ cells (NKG2A−/NKG2C+ NK cells)	stabilization of HLA-E surface expression (peptide-HLA-E binding) (HLA-E)
ILTDRSLWL	moderate inhibitory effects	strong activating effects	strong stabilization of HLA-E
VMADKSIFY [OR5D14, reference compound]			no stabilizing effects
TLPERTLYL	strong inhibitory effect	strong activating effect	strong stabilization of HLA-E
FLPNRSLLF	moderate inhibitory effects	strong activating effects	strong stabilization of HLA-E
TLPKRGLFL	moderate inhibitory effects	strong activating effects	strong stabilization of HLA-E
VMPGRTLCF	strong inhibitory effect	strong activating effect	strong stabilization of HLA-E
VMGDRSVLY [EMC1, reference compound]			no stabilizing effects
VMPPRTLLL	strong inhibitory effect	strong activating effect	strong stabilization of HLA-E
QMPSRSLLF	moderate inhibitory effects	strong activating effects	strong stabilization of HLA-E
WNRLFPPLR [UBAC2275-279, reference compound]			no stabilizing effects
TAPARTMFL			strong stabilization of HLA-E
NMPARTVLF	strong inhibitory effect	strong activating effect	strong stabilization of HLA-E
VLPHRTQFL	strong inhibitory effect	strong activating effect	strong HLA-E binding
RMPPRSVLL	strong inhibitory effect	strong activating effect	
